This experiment deals with human σ1 receptor and human μ-opioid receptor. As to the kind of experiment: Human σ1 receptor radioligand assay and human μ-opioid receptor radioligand assay (results reported only as combined μ and σ1 dual binding). On the set-up: key to μ and σ1 dual binding: +: Both Ki-μ and Ki-σ1>=500 nM; ++: One Ki<500 nM while the other Ki is >=500 nM; +++: Both Ki-μ and Ki-σ1<500 nM; ++++: Both Ki-μ and Ki-σ1<100 nM. To be noted: Ki at human σ1 receptor (HEK-293 membranes, [3H](+)-pentazocine) and human μ-opioid receptor (CHO-K1 membranes, [3H]-DAMGO), one combined class. The protocol: To investigate binding properties of σ1 receptor ligands to human σ1 receptor, transfected HEK-293 membranes and [^3H](+)-pentazocine (Perkin Elmer, NET-1056), as the radioligand, were used. The assay was carried out with 7 μg of membrane suspension, 5 nM of [^3H](+)-pentazocine in either absence or presence of either buffer or 10 μM Haloperidol for total and non-specific binding, respectively. Binding buffer contained Tris-HCl 50 mM at pH 8. Plates were incubated at 37° C. for 120 minutes. After the incubation period, the reaction mix was then transferred to MultiScreen HTS, FC plates (Millipore), filtered and plates were washed 3 times with ice-cold 10 mM Tris-HCL (pH7.4). Filters were dried and counted at approximately 40% efficiency in a MicroBeta scintillation counter (Perkin-Elmer) using EcoScint liquid scintillation cocktail
To investigate binding properties of μ-opioid receptor ligands to human μ-opioid receptor, transfected CHO-K1 cell membranes and [^3H]-DAMGO (Perkin Elmer, ES-542-C), as the radioligand, were used. The assay was carried out with 20 μg of membrane suspension, 1 nM of [^3H]-DAMGO in either absence or presence of either buffer or 10 μM Naloxone for total and non-specific binding, respectively. Binding buffer contained Tris-HCl 50 mM, MgCl2 5 mM at pH 7.4. Plates were incubated at 27° C. for 60 minutes. After the incubation period, the reaction mix was then transferred to MultiScreen HTS, FC plates (Millipore), filtered and plates were washed 3 times with ice-cold 10 mM Tris-HCL (pH 7.4). Filters were dried and counted at approximately 40% efficiency in a MicroBeta scintillation counter (Perkin-Elmer) using EcoScint liquid scintillation cocktail.
For the molecule `CC(=O)Oc1cccc(C2CCN(Cc3cn(Cc4ccccn4)nn3)CC2)c1` [Example 3, 3-(1-((1-(pyridin-2-ylmethyl)-1H-1,2,3-triazol-4-yl)methyl)piperidin-4-yl)phenyl acetate], the “μ and σ1 dual binding” value is recorded as “++”.

`COc1cccc(C2CCN(Cc3cn(Cc4ncccc4F)nn3)CC2)c1` [Example 15, 3-fluoro-2-((4-((4-(3-methoxyphenyl)piperidin-1-yl)methyl)-1H-1,2,3-triazol-1-yl)methyl)pyridine]: the “μ and σ1 dual binding” value is reported as “++”.

What is called Ki is the dissociation constant of the complex between target and ligand, obtained from inhibition or displacement. Turning to `CC(=O)Oc1cccc(C2CCN(Cc3cn(-c4ccccc4)nn3)CC2)c1` [Example 9, 3-(1-((1-phenyl-1H-1,2,3-triazol-4-yl)methyl)piperidin-4-yl)phenyl acetate], the Ki is below 100 nM.

For `COc1cccc(C2CCN(Cc3cn(C(CO)c4ccccc4)nn3)CC2)c1` (centres unmarked) [Example 17, 2-(4-((4-(3-methoxyphenyl)piperidin-1-yl)methyl)-1H-1,2,3-triazol-1-yl)-2-phenylethanol], the “μ and σ1 dual binding” value is reported as “++”.

`CC(C)[C@H](NC(=O)Oc1cccc(C2CCN(Cc3cn(Cc4ccccn4)nn3)CC2)c1)C(=O)O` [Example 13]: the Ki was at least 500 nM.

With `COCCOc1cccc(C2CCN(Cc3cn(-c4ccccc4)nn3)CC2)c1` [Example 10, 4-(3-(2-methoxyethoxy)phenyl)-1-((1-phenyl-1H-1,2,3-triazol-4-yl)methyl)piperidine], the Ki was below 500 nM.

As to `NC1(C(=O)Oc2cccc(C3CCN(Cc4cn(Cc5ccccn5)nn4)CC3)c2)CCCCC1` [Example 20, 3-(1-((1-(pyridin-2-ylmethyl)-1H-1,2,3-triazol-4-yl)methyl)piperidin-4-yl)phenyl 1-aminocyclohexanecarboxylate], the Ki was at least 500 nM.

In the case of `COc1cccc(C2CCN(Cc3cn(-c4ccc(F)cc4)nn3)CC2)c1` [Example 2, 1-((1-(4-fluorophenyl)-1H-1,2,3-triazol-4-yl)methyl)-4-(3-methoxyphenyl)piperidine], the “μ and σ1 dual binding” value is reported as “++”.

In the case of `O=C(O)CNC(=O)Oc1cccc(C2CCN(Cc3cn(Cc4ccccn4)nn3)CC2)c1` [Example 14], the Ki is at least 500 nM.

Consider `CC(C)C(=O)Oc1cccc(C2CCN(Cc3cn(Cc4ccccn4)nn3)CC2)c1` [Example 5, 3-(1-((1-(pyridin-2-ylmethyl)-1H-1,2,3-triazol-4-yl)methyl)piperidin-4-yl)phenyl isobutyrate], for which the Ki was below 500 nM.

Regarding `COc1cccc(C2CCN(Cc3cn(Cc4ccccn4)nn3)CC2)c1` [Example 12, 2-((4-((4-(3-methoxyphenyl)piperidin-1-yl)methyl)-1H-1,2,3-triazol-1-yl)methyl)pyridine], the “μ and σ1 dual binding” value is given as “++”.

As to `CC(C)[C@H](N)C(=O)Oc1cccc(C2CCN(Cc3cn(Cc4ccccn4)nn3)CC2)c1` [Example 6, (S)-3-(1-((1-(pyridin-2-ylmethyl)-1H-1,2,3-triazol-4-yl)methyl)piperidin-4-yl)phenyl 2-amino-3-methylbutanoate], the Ki was below 500 nM.

For the molecule `COc1cccc(C2CCN(Cc3cn(Cc4ccc(F)cn4)nn3)CC2)c1` [Example 16, 5-fluoro-2-((4-((4-(3-methoxyphenyl)piperidin-1-yl)methyl)-1H-1,2,3-triazol-1-yl)methyl)pyridine], the “μ and σ1 dual binding” value is recorded as “++”.

Turning to `O=C(Nc1ccc(C(=O)O)cc1)Oc1cccc(C2CCN(Cc3cn(Cc4ccccn4)nn3)CC2)c1` [Example 4], the inhibitory constant (Ki) was below 500 nM.

As to `O=C(Oc1cccc(C2CCN(Cc3cn(Cc4ccccn4)nn3)CC2)c1)[C@@H]1CCCN1` [Example 18, (S)-3-(1-((1-(pyridin-2-ylmethyl)-1H-1,2,3-triazol-4-yl)methyl)piperidin-4-yl)phenyl pyrrolidine-2-carboxylate], the Ki is below 500 nM.

Consider `COCCCOc1cccc(C2CCN(Cc3cn(-c4ccccc4)nn3)CC2)c1` [Example 11, 4-(3-(3-methoxypropoxy)phenyl)-1-((1-phenyl-1H-1,2,3-triazol-4-yl)methyl)piperidine], for which the inhibitory constant (Ki) is below 500 nM.

For the molecule `COc1cccc(C2CCN(Cc3cn(-c4ccccc4)nn3)CC2)c1` [Example 7, 4-(3-methoxyphenyl)-1-((1-phenyl-1H-1,2,3-triazol-4-yl)methyl)piperidine], the Ki was below 500 nM.

Take `N[C@@H](Cc1ccccc1)C(=O)Oc1cccc(C2CCN(Cc3cn(Cc4ccccn4)nn3)CC2)c1` [Example 19, (S)-3-(1-((1-(pyridin-2-ylmethyl)-1H-1,2,3-triazol-4-yl)methyl)piperidin-4-yl)phenyl 2-amino-3-phenylpropanoate]: the Ki is below 500 nM.

Turning to `CN(C)C(=O)Oc1cccc(C2CCN(Cc3cn(-c4ccccc4)nn3)CC2)c1` [Example 8, 3-(1-((1-phenyl-1H-1,2,3-triazol-4-yl)methyl)piperidin-4-yl)phenyl dimethylcarbamate], the Ki was below 500 nM.

Consider `CCNC(=O)Oc1cccc(C2CCN(Cc3cn(-c4ccccc4)nn3)CC2)c1` [Example 1, 3-(1-((1-phenyl-1H-1,2,3-triazol-4-yl)methyl)piperidin-4-yl)phenyl ethylcarbamate], for which the Ki is below 500 nM.
